For one assay, the system named is type A influenza virus. As to the kind of experiment: microbe, parasite or virus in culture. The format is cell-based, A/Sichuan/2/87(H3N2).
Another assay has as its target neuraminidase (NA) (Influenza B virus (B/USSR/100/83), UniProt P16205). In kind it is biochemical, type B influenza virus, B/USSA/100/83E. The following applies: control 11.0.
The target of assay [1] is hemaglutinin (HA) (Influenza A virus (A/Sichuan/2/1987(H3N2)), UniProt H9XCU1). As to the kind of experiment: Hemaglutinin activity of type A influenza virus after treatment (agglutination of red blood cells). The format is biochemical, A/Sichuan/2/87(H3N2). The conditions noted are these: FIG. 1, concentration dependence.
Another assay concerns type B influenza virus. In words: microbe, parasite or virus in culture. The format is cell-based, B/USSA/100/83E. The following applies: unidentified influenza virus, read-out: percentage of inhibition against infection; for inhibition at 4 µg/mL: 5 min; for inhibition at 1 µg/mL: 1 h.
Another assay relates to virus. As to the kind of experiment: Electron microscope observation of virus suspension with EGCg. The conditions noted are these: EGCg added to suspension of the virus. An excerpt: The […] (PTA) dyeing method was utilized.

The text below walks through data of patent US5137922A (priority 1989, dated 1992).

The term inhibition denotes how much of the control response was suppressed.

Like-named read-outs stand apart in the source and are kept apart here.

For the molecule `O=C(O[C@@H]1Cc2c(O)cc(O)cc2O[C@@H]1c1cc(O)c(O)c(O)c1)c1cc(O)c(O)c(O)c1` [EGCg, (-)epigallocatechin gallate], in the assay with type A influenza virus (FIG. 1, concentration dependence), the infection inhibiting power result is recorded as “depend on the concentration”. In addition, the inhibition at 0.5 µg/mL in the assay with type A influenza virus (unidentified influenza virus, MDCK, 1 h, read-out: inhibition of infection) was found to be 100%. Further, the number of plaques result in the assay with type A influenza virus (virus treated 1 hour, 0.5 μg/ml) is “zero”. This molecule also gave an NA activity on neuraminidase (NA) (50 μg/ml) of 8.00. The molecule further displayed an NA activity on neuraminidase (NA) (100 μg/ml) of 5.10. The “hemaglutinin activity inhibiting power” value in assay [1] is on record as “depend on the concentration”. Besides, in the assay with type B influenza virus, the inhibition at 4 µg/mL came out at 100% and the inhibition at 1 µg/mL was determined as 100%. In the assay on virus, the “behavior of the virus under electron microscope” value was “instantaneous formation of agglutinated lumps of the viruses”.
In the case of `O=C(O[C@@H]1Cc2c(O)cc(O)cc2O[C@@H]1c1cc(O)c(=O)c2c(O)c(O)cc([C@H]3Oc4cc(O)cc(O)c4C[C@H]3OC(=O)c3cc(O)c(O)c(O)c3)c2c1)c1cc(O)c(O)c(O)c1` [TF3, theaflavin digallate], in the assay on type B influenza virus, the inhibition at 4 µg/mL was 100% and the inhibition at 1 µg/mL was determined as 100%.
